{"source": "patent US20030225132A1", "about": "“Estrogen receptor modulators” (priority 2002, published 2003)", "test_system": "MCF-7 cells", "assay": "MCF-7 Estrogen Dependent Proliferation Assay", "type": "cell-based", "details": "Homo sapiens, MCF7; added to Estrogen Depleted Media (EDM); read-out: EC50 of stimulation of growth of MCF-7 cells", "description": "MCF-7 Estrogen Dependent Proliferation Assay MCF-7 cells (ATCC #HTB-22) are human mammary gland adenocarcinoma cells that require estrogen for growth. The growth media (GM) for the MCF-7 cells is Minimum Essential Media (without phenol red) supplemented with fetal bovine serum ([…]) to 10%. The PBS serves as the sole source of estrogen and this GM supports the full growth of the cells and is used for the routine growth of the cell cultures. When MCF-7 cells are placed in a media in which 10% Charcoal-Dextran treated fetal bovine serum (CD-FBS) is substituted for PBS, the cells will cease to divide but will remain viable. […] The addition of estradiol to EDM stimulates the growth of the MCF-7 cells in a dose dependent manner with an EC50 of 2 pM. Growing MCF-7 cells are washed several times with EDM and the cultures then maintained in EDM for a minimum of 6 days in order to deplete the cells of endogenous estrogen. […] At this point, the culture supernatants are aspirated, the cells washed 2× with PBS, the wash solution aspirated and the protein content of each well determined. Each drug dilution is evaluated on a minimum of 5 wells and the range of dilution of the test compounds in the assay is 0.001 nM to 1000 nM. […] The assay is terminated at day 8-10 when the appropriate controls reach 80-90% confluency and the protein content of each well is determined as above.", "note": "pEC50: −log10 of the molar value.", "data": [{"smiles": "C[C@]12CC[C@@H]3c4ccc(O)cc4CC[C@H]3[C@@H]1CC[C@@H]2O", "note": "[estradiol]", "values": [{"measurement": "pEC50", "result": 11.70}]}]}
